The text below walks through data of publication PMC2978510 (Bioorganic & medicinal chemistry, 2010).

For assay [1] the following is noted: mouse; ref [28]; cited from earlier work.
The subject of assay [2] is CB2 receptor. Particulars: cited from earlier work; for Ki: read-out: Affinity for the CB2 receptor, Merck Frosst group, ref [29].
Assay [3] has as its system CB1 receptor. Particulars: Merck Frosst group; ref [29]; cited from earlier work.
Assay [4] deals with T1, CB2 receptor (Homo sapiens, UniProt P34972). Particulars: ref [31], cited from earlier work.
T1 sequence (P34972 whole entry): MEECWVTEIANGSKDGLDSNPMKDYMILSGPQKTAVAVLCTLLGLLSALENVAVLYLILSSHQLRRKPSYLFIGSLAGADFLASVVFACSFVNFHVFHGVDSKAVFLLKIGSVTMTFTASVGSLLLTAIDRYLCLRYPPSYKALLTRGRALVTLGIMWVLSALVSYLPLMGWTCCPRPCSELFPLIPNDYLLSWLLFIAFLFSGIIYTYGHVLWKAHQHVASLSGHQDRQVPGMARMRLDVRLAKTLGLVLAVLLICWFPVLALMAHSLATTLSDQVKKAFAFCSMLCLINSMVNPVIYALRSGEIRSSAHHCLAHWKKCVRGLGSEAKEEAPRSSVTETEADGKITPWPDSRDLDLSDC
Assay [5] deals with CB1 receptor (Rattus norvegicus, UniProt P20272). Particulars: read-out: Ki (nM) CB1; mean ± SEM; ref [31]; cited from earlier work.
CB1 receptor (Rattus norvegicus, UniProt P20272), sequence (P20272 whole entry): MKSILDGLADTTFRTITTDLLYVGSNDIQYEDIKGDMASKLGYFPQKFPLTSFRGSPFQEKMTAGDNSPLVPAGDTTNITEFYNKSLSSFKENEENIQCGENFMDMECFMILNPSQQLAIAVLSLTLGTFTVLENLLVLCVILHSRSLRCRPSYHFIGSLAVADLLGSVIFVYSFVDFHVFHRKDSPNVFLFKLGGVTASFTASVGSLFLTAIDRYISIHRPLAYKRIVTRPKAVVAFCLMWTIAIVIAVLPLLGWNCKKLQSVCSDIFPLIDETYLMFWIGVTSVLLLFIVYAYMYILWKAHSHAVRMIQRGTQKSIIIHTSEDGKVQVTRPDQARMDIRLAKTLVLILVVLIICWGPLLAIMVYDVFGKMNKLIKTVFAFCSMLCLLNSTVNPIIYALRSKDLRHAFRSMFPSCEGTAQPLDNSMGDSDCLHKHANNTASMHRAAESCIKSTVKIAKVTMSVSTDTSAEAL
For assay [6], the target named is T1, CB2 receptor. The assay is described as follows: GTPγS binding in CHO cells stably expressing the human CB2 receptor. The assay is classed as biochemical. Particulars: for Efficacy at the CB2 receptor: GTPγS binding, relative to CP-55,940. (Binding of GTPγS marks nucleotide exchange on a G protein.)

Broadly, the Emax is the maximal effect, on the per cent scale that the assay sets.

Structures are written as SMILES.

For the compound `CCCCCCC(C)(C)c1ccc2c(c1)OC(C)(C)[C@@H]1CC=C(CO)C[C@@H]21` [Compound 2, 11-hydroxy-3-(1′,1′-dimethylheptyl)-1-deoxy-Δ^8-THC], the Potency in vivo entry in assay [1] was “potent cannabinoid in vivo in the mouse”.
As for `CCCCCCC(C)(C)c1ccc2c(c1)OC(C)(C)[C@@H]1CC=C(C)C[C@@H]21` [Compound 3, 3-(1′,1′-dimethylheptyl)-1-deoxy-Δ^8-THC], in assay [2] (ref [28]), the “Selectivity for the CB2 receptor” value is listed as “nearly ten-fold selectivity”. Further, the Potency in vivo result in assay [1] is given as “potent in vivo”.
In the case of `CCCCCCC(C)(C)c1cc(OC)c2c(c1)OC(C)(C)C1CC=C(C)CC21` (stereo not shown) [Compound 4, 1-methoxy-Δ^8-THC-DMH], in assay [2], the Ki is approximately 0.02 µM. In addition, the “Affinity for the CB1 receptor” value in assay [3] is on record as “negligible affinity”.
Consider `C=C1CCC2C(C1)c1c(OC)cc(C(C)(C)CCCCCC)cc1OC2(C)C` (stereo not shown) [Compound 5, 1-methoxy-Δ^9(11)-THC-DMH], for which the Ki in assay [2] is approximately 0.02 µM. For the same compound, the “Affinity for the CB1 receptor” value in assay [3] was “negligible affinity”.
As for `CCCCCCC(C)(C)c1cc(OC)c2c(c1)OC(C)(C)C1CC=C(C)CC21` (stereo not shown) [JWH-143], in assay [4] (1-methoxy series), the “Selectivity for the CB2 receptor” value was 12 fold.
Regarding `CCCC(C)(C)c1cc(OC)c2c(c1)OC(C)(C)[C@@H]1CC=C(C)C[C@@H]21` [JWH-214], the Ki was 325 ± 70 nM in assay [4] (read-out: Ki (nM) CB2, mean ± SEM) and more than 10000 nM in assay [5].
Consider `CCCCCCC(C)(C)c1cc(Br)c2c(c1)OC(C)(C)[C@@H]1CC=C(C)C[C@@H]21` [JWH-383, 1-Bromo-1-deoxy-3-(1′,1′-dimethylheptyl)-Δ^8-tetrahydrocannabinol], for which the “Efficacy at the CB2 receptor” value in assay [6] is given as “full agonists”.
Take `CCCCCC(C)(C)c1cc(Br)c2c(c1)OC(C)(C)[C@@H]1CC=C(C)C[C@@H]21` [JWH-393, 1-Bromo-1-deoxy-3-(1′,1′-dimethylhexyl)-Δ^8-tetrahydrocannabinol]: the “Efficacy at the CB2 receptor” value in assay [6] is on record as “full agonists”. Also, the Emax in assay [6] (read-out: Emax (% CP-55940), percent relative to 3 μM CP-55,940, mean ± SEM) stood at 98.3 ± 6.8%.
